Bounds are passed on as bounds.

The nature of assay [1]: Inhibition of CDK1/cyclin B. Further details: species or system Homo sapiens.
Assay [2] has as its target Receptor tyrosine-protein kinase erbB-2 (Homo sapiens, UniProt P04626). The experiment in a line: Inhibition of HER2.
Assay [3] deals with Vascular endothelial growth factor receptor 2 (Homo sapiens, UniProt P35968). Kind of assay: Inhibition of VEGFR2.
In another assay the target is T1, Aurora kinase A (Homo sapiens, UniProt O14965).
T1 sequence (O14965 whole entry): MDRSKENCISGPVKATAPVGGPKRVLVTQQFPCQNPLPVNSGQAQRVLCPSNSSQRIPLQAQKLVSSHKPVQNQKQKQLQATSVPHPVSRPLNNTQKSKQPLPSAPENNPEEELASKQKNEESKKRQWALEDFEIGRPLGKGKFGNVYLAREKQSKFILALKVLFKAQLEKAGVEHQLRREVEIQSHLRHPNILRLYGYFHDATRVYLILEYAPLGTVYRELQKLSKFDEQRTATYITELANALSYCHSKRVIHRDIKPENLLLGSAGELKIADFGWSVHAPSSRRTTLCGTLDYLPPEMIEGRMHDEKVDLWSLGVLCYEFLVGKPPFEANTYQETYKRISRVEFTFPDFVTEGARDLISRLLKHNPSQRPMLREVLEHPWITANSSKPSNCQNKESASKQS
The experiment in a line: Inhibition of aurora-A.

The test system of the next assay is A-375. The experiment in a line: Antiproliferative activity against human A375 cells. It counts as functional, cell-based.
For a further assay, the system named is HCT-116. Kind of assay: Antiproliferative activity against human HCT116 cells. Format: functional, cell-based.
The test system of a further assay is HeLa. The experiment in a line: Antiproliferative activity against human HeLa cells. It counts as functional, cell-based.

Chain of Vascular endothelial growth factor receptor 2 (P35968 whole entry): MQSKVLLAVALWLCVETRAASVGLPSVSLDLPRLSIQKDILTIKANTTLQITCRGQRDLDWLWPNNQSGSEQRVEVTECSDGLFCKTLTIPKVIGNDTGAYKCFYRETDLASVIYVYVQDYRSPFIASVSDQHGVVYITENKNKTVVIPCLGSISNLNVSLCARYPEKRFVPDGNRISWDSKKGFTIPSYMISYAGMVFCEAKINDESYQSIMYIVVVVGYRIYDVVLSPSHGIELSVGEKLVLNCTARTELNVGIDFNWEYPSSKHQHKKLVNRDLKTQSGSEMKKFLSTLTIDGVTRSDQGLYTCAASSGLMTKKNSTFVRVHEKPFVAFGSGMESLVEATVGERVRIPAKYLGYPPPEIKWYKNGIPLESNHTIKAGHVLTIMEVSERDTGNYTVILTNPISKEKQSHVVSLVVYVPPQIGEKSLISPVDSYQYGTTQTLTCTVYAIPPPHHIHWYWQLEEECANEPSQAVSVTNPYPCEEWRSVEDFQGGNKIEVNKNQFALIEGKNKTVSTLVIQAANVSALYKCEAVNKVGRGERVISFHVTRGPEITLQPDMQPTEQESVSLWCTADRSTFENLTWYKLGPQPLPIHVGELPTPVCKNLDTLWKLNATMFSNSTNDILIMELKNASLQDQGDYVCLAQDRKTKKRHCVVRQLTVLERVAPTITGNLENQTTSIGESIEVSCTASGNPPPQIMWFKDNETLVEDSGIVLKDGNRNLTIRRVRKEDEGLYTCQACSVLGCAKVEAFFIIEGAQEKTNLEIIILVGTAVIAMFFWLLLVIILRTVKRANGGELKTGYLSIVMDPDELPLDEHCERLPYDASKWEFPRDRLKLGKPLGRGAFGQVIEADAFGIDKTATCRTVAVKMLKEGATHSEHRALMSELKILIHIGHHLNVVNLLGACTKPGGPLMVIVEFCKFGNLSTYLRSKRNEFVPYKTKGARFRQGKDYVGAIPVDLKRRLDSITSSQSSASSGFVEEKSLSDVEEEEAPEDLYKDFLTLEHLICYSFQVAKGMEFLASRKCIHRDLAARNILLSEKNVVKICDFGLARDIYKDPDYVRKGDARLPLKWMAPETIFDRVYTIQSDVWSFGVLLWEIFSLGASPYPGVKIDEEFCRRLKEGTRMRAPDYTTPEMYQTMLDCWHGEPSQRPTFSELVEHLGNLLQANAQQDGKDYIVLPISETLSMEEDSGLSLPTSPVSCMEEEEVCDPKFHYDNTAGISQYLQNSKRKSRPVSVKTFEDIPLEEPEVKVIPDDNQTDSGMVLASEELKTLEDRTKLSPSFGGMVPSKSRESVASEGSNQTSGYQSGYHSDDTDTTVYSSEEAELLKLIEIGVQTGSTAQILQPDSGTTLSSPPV
Chain of Receptor tyrosine-protein kinase erbB-2 (P04626 whole entry): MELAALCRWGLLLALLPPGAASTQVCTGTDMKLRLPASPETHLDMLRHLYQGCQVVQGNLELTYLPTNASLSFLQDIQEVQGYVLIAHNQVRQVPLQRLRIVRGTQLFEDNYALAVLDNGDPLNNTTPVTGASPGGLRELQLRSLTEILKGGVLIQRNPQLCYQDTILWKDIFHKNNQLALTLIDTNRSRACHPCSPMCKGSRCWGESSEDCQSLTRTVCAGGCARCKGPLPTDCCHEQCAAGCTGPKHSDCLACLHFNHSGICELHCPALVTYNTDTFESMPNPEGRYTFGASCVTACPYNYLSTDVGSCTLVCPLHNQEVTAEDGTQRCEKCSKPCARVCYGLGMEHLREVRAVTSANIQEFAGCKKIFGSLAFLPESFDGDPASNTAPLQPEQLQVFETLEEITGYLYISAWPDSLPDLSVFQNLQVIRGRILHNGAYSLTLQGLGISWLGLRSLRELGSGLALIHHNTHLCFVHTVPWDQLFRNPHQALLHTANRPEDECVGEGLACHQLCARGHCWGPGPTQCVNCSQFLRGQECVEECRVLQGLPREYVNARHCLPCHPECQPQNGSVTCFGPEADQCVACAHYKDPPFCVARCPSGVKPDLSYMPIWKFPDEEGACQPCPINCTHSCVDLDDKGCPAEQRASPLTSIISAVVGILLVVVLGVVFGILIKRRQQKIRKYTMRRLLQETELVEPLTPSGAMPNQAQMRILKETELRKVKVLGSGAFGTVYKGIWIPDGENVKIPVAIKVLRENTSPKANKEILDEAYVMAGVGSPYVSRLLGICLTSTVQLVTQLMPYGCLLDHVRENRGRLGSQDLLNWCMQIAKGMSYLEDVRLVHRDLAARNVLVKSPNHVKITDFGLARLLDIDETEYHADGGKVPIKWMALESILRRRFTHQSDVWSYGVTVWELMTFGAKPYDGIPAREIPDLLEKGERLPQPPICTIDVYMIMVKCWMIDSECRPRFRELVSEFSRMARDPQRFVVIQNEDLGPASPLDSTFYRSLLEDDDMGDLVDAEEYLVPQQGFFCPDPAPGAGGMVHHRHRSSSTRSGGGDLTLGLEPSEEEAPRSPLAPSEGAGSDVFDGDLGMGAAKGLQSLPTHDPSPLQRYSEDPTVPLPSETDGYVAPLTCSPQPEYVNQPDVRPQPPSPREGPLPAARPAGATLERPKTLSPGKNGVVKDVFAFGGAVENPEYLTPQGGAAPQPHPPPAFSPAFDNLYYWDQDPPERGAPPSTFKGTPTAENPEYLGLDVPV

The term IC50 denotes the midpoint of a concentration-inhibition curve. Read a high IC50 as lower potency. Regarding `CCNCc1cncc(/C=C/c2c[nH]nc2-c2nc(C(F)(F)F)c[nH]2)c1`, the IC50 in assay [1] is 0.018 µM; in assay [2], > 100 µM; in assay [3], 10 µM; against Aurora kinase A it was > 10 µM; in the assay with A-375, 7.4 µM; in the assay with HCT-116, 1.7 µM. The midpoint of inhibition with HeLa, the IC50, lay at 3.2 µM.

As for `COc1ccc2nc(-c3n[nH]cc3/C=C/c3cncc4ccccc34)[nH]c2c1`, the IC50 is 0.15 µM in assay [1]; > 100 µM in assay [2]; 0.61 µM in assay [3]; 0.53 µM against Aurora kinase A; 3 µM in the assay on A-375; 2.7 µM in the assay with HCT-116. The molecule further returned an IC50 in the assay on HeLa of 2.8 µM.

Regarding `FC(F)(F)c1c[nH]c(-c2n[nH]cc2/C=C/c2cncc3ccccc23)n1`, the IC50 in assay [1] was 0.11 µM; in assay [3], 3.06 µM; against Aurora kinase A, 0.3 µM; in the assay with A-375 it was 5.6 µM; in the assay on HCT-116 it was 2.9 µM; in the assay with HeLa it was 3.6 µM.

For the molecule `COc1ccc2nc(-c3n[nH]cc3/C=C/c3cccnc3)[nH]c2c1`, the IC50 in assay [1] is 0.033 µM; in assay [2] it was > 10 µM; in assay [3], 0.97 µM; against Aurora kinase A it was 0.51 µM; with A-375 it was 2.5 µM; with HCT-116, 2.2 µM. The same molecule gave an IC50 in the assay on HeLa of 1.8 µM.

Turning to `CCNC(=O)c1cncc(/C=C/c2c[nH]nc2-c2nc3ccc(OC)cc3[nH]2)c1`, the IC50 was 0.11 µM in assay [1]; 1.35 µM in assay [3]; > 100 µM at Aurora kinase A; 3.6 µM in the assay with A-375; 2.5 µM with HCT-116; 3.7 µM in the assay with HeLa.

As to `COC(=O)c1cncc(/C=C/c2c[nH]nc2-c2nc3ccc(OC)cc3[nH]2)c1`, the IC50 was 0.89 µM in assay [1]; > 100 µM in assay [2]; 1.28 µM in assay [3]; > 100 µM against Aurora kinase A; 3.1 µM in the assay on A-375; 3.1 µM in the assay on HCT-116. This molecule also registered an IC50 in the assay with HeLa of 4.4 µM.

On to `CCNCc1cncc(/C=C/c2c[nH]nc2-c2nc3ccc(OC)cc3[nH]2)c1`, for which the IC50 in assay [1] amounted to 0.0046 µM; in assay [3] it was 0.82 µM; against Aurora kinase A it was 0.59 µM; in the assay with A-375 it was 0.55 µM; with HCT-116 it was 0.19 µM; with HeLa it was 0.62 µM.

As for `CN1CCN(c2ccc3nc(-c4n[nH]cc4/C=C/c4cccnc4)[nH]c3c2)CC1`, the IC50 in assay [1] was 0.029 µM; in assay [3] it was 0.29 µM; at Aurora kinase A it was > 10 µM; in the assay with A-375, 0.86 µM; in the assay with HCT-116 it was 0.19 µM; in the assay on HeLa it was 0.46 µM.

Consider `COc1ccc2nc(-c3n[nH]cc3/C=C/c3cncc(C#N)c3)[nH]c2c1`, for which the IC50 was > 1 µM in assay [1], > 100 µM in assay [2], 1.7 µM in assay [3] and 4.2 µM against Aurora kinase A.

With `COc1ccc2nc(-c3n[nH]cc3/C=C/c3cnccc3C)[nH]c2c1`, the IC50 in assay [1] is 0.16 µM; in assay [2], > 10 µM; in assay [3], 0.76 µM; against Aurora kinase A it was 0.55 µM; with A-375, 4.3 µM; with HCT-116 it was 3.2 µM. For the same molecule, in the assay with HeLa, half-maximal inhibition (IC50) required 2.8 µM.

For the molecule `FC(F)(F)c1c[nH]c(-c2n[nH]cc2/C=C/c2cccnc2)n1`, the IC50 in assay [1] is 0.48 µM; in assay [2], > 100 µM; in assay [3], 29 µM; against Aurora kinase A, 0.12 µM; in the assay on A-375, 47 µM; with HCT-116, 24 µM. Moreover, the IC50 with HeLa was > 10 µM.

As for `COc1cncc(/C=C/c2c[nH]nc2-c2nc3ccc(OC)cc3[nH]2)c1`, the IC50 in assay [1] came to 0.047 µM; in assay [3], 0.65 µM; against Aurora kinase A it was 0.4 µM; in the assay with A-375, 0.91 µM; in the assay on HCT-116, 0.75 µM; in the assay with HeLa it was 0.89 µM.

As for `N#Cc1c[nH]c(-c2n[nH]cc2/C=C/c2cccnc2)n1`, the IC50 is 0.7 µM in assay [1]; > 100 µM in assay [2]; > 10 µM in assay [3]; > 10 µM on Aurora kinase A; > 10 µM in the assay on A-375; 70.7 µM in the assay on HCT-116. In addition, the IC50 in the assay on HeLa is > 10 µM.

Source of the values: ChEMBL document CHEMBL1140656, “Design, synthesis, and evaluation of 3,4-disubstituted pyrazole analogues as anti-tumor CDK inhibitors” (Bioorg Med Chem Lett, 2007).
